Test results taken from US20250145594A1, “MODULATORS OF THE INTEGRATED STRESS PATHWAY” (Calico Life Sciences LLC, priority 2020, published 2025).

system: ATF4 luciferase reporter in HEK293T cells; assay: ATF4-Luc assay (in vitro model of VWMD); type: cell-based, human; conditions: Homo sapiens, HEK-293T, 7 h, HEK293T cells carrying the ATF4 luciferase reporter, 1 μg/mL tunicamycin, One Glo luminescence
Method in brief: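 Tunicamycin (1 μg/mL) stress with co-added compound for 7 hours in HEK293T cells stably carrying an ATF4 5′-UTR–luciferase reporter. EC50 values come from the luminescent signal (One Glo).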

| Structure (SMILES) | EC50 [nM] |
| --- | --- |
| O=C(NC12CC(n3cc(-c4ccc(C(F)(F)F)cn4)cn3)(C1)C2)[C@H]1C[C@@H](O)c2cc(C(F)(F)F)c(F)cc2O1 [Compound 484, (2R,4R)-7-fluoro-4-hydroxy-6-(trifluoromethyl)-N-(3-{4-[5-(trifluoromethyl)pyridin-2-yl]-1H-pyrazol-1-yl}bicyclo[1.1.1]pentan-1-yl)-3,4-dihydro-2H-1-benzopyran-2-carboxamide] | < 10 |
| O=C(NC12CC(c3ccc(-n4cnc(C(F)(F)F)c4)nc3)(C1)C2)[C@H]1C[C@@H](O)c2cc(Cl)ccc2O1 [Compound 559, (2R,4R)-6-chloro-4-hydroxy-N-(3-{6-[4-(trifluoromethyl)-1H-imidazol-1-yl]pyridin-3-yl}bicyclo[1.1.1]pentan-1-yl)-3,4-dihydro-2H-1-benzopyran-2-carboxamide] | 10 to 50 |
| O=C(NC12CCC(n3cc(OCCOC(F)(F)F)cn3)(C1)C2)[C@H]1C[C@@H](O)c2cc(Cl)ccc2O1 [Compound 594, (2R,4R)-6-chloro-4-hydroxy-N-(4-{4-[2-(trifluoromethoxy)ethoxy]-1H-pyrazol-1-yl}bicyclo[2.1.1]hexan-1-yl)-3,4-dihydro-2H-1-benzopyran-2-carboxamide] | 50 to 250 |
| O=C(NC12CC(n3cc(-c4ccc(OC(F)(F)F)cn4)cn3)(C1)C2)[C@H]1C[C@@H](O)c2cc(F)ccc2O1 (single isomer, unassigned) [Compound 475] | < 10 |
| O=C(NC12CC(c3cnn([C@H]4C[C@@H](OC(F)(F)F)C4)c3)(C1)C2)[C@H]1C[C@@H](O)c2cc(Cl)ccc2O1 [Compound 316, (2R,4R)-6-chloro-4-hydroxy-N-(3-{1-[cis-3-(trifluoromethoxy)cyclobutyl]-1H-pyrazol-4-yl}bicyclo[1.1.1]pentan-1-yl)-3,4-dihydro-2H-1-benzopyran-2-carboxamide] | < 10 |
| O=C(NC12CC(n3cc(OCCCC(F)(F)F)cn3)(C1)C2)[C@H]1C[C@H](O)c2cc(C(F)(F)F)c(F)cc2O1 [Compound 642, (2R,4S)-7-fluoro-4-hydroxy-N-{3-[4-(4,4,4-trifluorobutoxy)-1H-pyrazol-1-yl]bicyclo[1.1.1]pentan-1-yl}-6-(trifluoromethyl)-3,4-dihydro-2H-1-benzopyran-2-carboxamide] | 10 to 50 |
| O=C(N[C@H]1CC[C@H](n2cc(OCCCOC(F)(F)F)cn2)CC1)[C@H]1C[C@@H](O)c2cc(Cl)c(F)cc2O1 [Compound 422, (2R,4R)-6-chloro-7-fluoro-4-hydroxy-N-[(1r,4R)-4-{4-[3-(trifluoromethoxy)propoxy]-1H-pyrazol-1-yl}cyclohexyl]-3,4-dihydro-2H-1-benzopyran-2-carboxamide] | < 10 |
| O=C(NC12CC(c3ccnc(-n4cc(C(F)(F)F)cn4)c3)(C1)C2)[C@H]1C[C@@H](O)c2cc(Cl)c(F)cc2O1 [Compound 561, (2R,4R)-6-chloro-7-fluoro-4-hydroxy-N-(3-{2-[4-(trifluoromethyl)-1H-pyrazol-1-yl]pyridin-4-yl}bicyclo[1.1.1]pentan-1-yl)-3,4-dihydro-2H-1-benzopyran-2-carboxamide] | < 10 |
| O=C(N[C@H]1CC[C@H](n2cc(OCCOC(F)(F)F)cn2)CC1)[C@H]1C[C@@H](O)c2cc(F)c(F)cc2O1 [Compound 638, (2R,4R)-6,7-difluoro-4-hydroxy-N-[(1r,4R)-4-{4-[2-(trifluoromethoxy)ethoxy]-1H-pyrazol-1-yl}cyclohexyl]-3,4-dihydro-2H-1-benzopyran-2-carboxamide] | < 10 |
| O=C(NC12CC(n3cc(OCCOC(F)(F)F)cn3)(C1)C2)[C@@H]1C[C@@H](O)c2cc(Cl)ccc2O1 [Compound 631, (2S,4R)-6-chloro-4-hydroxy-N-(3-{4-[2-(trifluoromethoxy)ethoxy]-1H-pyrazol-1-yl}bicyclo[1.1.1]pentan-1-yl)-3,4-dihydro-2H-1-benzopyran-2-carboxamide] | 10 to 50 |
| O=C(COc1ccc(C(F)(F)F)cc1O)NC12CC(n3cc([C@H]4C[C@@H](OC(F)(F)F)C4)nn3)(C1)C2 [Compound 615, 2-[2-hydroxy-4-(trifluoromethyl)phenoxy]-N-(3-{4-[(1s,3s)-3-(trifluoromethoxy)cyclobutyl]-1H-1,2,3-triazol-1-yl}bicyclo[1.1.1]pentan-1-yl)acetamide] | 10 to 50 |
| O=C(NC12CC(n3cc(OCCOC(F)(F)F)cn3)(C1)C2)[C@H]1C[C@@H](O)c2cc(F)ccc2O1 [Compound 418, (2R,4R)-6-fluoro-4-hydroxy-N-(3-{4-[2-(trifluoromethoxy)ethoxy]-1H-pyrazol-1-yl}bicyclo[1.1.1]pentan-1-yl)-3,4-dihydro-2H-1-benzopyran-2-carboxamide] | 10 to 50 |
| O=C(NC12CC(n3cc(-c4ccc(OC(F)F)cn4)cn3)(C1)C2)[C@H]1C[C@@H](O)c2cc(Cl)c(F)cc2O1 [Compound 576, (2R,4R)-6-chloro-N-(3-{4-[5-(difluoromethoxy)pyridin-2-yl]-1H-pyrazol-1-yl}bicyclo[1.1.1]pentan-1-yl)-7-fluoro-4-hydroxy-3,4-dihydro-2H-1-benzopyran-2-carboxamide] | < 10 |
| O=C(COc1ccc(Cl)cc1O)NC12CC(n3cc([C@H]4C[C@@H](OC(F)(F)F)C4)nn3)(C1)C2 [Compound 618, 2-(4-chloro-2-hydroxyphenoxy)-N-(3-{4-[(1s,3s)-3-(trifluoromethoxy)cyclobutyl]-1H-1,2,3-triazol-1-yl}bicyclo[1.1.1]pentan-1-yl)acetamide] | 10 to 50 |
| O=C(NC12CC(c3cnc([C@H]4C[C@@H](OC(F)(F)F)C4)o3)(C1)C2)[C@H]1C[C@@H](O)c2cc(Cl)ccc2O1 [Compound 410, (2R,4R)-6-chloro-4-hydroxy-N-(3-{2-[cis-3-(trifluoromethoxy)cyclobutyl]-1,3-oxazol-5-yl}bicyclo[1.1.1]pentan-1-yl)-3,4-dihydro-2H-1-benzopyran-2-carboxamide] | < 10 |
| O=C(NC12CC(n3cc(-c4ccc(OC(F)(F)F)cn4)cn3)(C1)C2)[C@H]1C[C@@H](O)c2cc(F)c(F)cc2O1 [Compound 369, (2R,4R)-6,7-difluoro-4-hydroxy-N-(3-{4-[5-(trifluoromethoxy)pyridin-2-yl]-1H-pyrazol-1-yl}bicyclo[1.1.1]pentan-1-yl)-3,4-dihydro-2H-1-benzopyran-2-carboxamide] | < 10 |
| O=C(NC12CC(c3ccc(-n4cnc(C(F)(F)F)c4)nc3)(C1)C2)[C@H]1C[C@@H](O)c2cc(Cl)c(F)cc2O1 [Compound 480, (2R,4R)-6-chloro-7-fluoro-4-hydroxy-N-(3-{6-[4-(trifluoromethyl)-1H-imidazol-1-yl]pyridin-3-yl}bicyclo[1.1.1]pentan-1-yl)-3,4-dihydro-2H-1-benzopyran-2-carboxamide] | < 10 |
| O=C(NC12CC(n3cc(-c4ccc(C(F)(F)F)cn4)cn3)(C1)C2)[C@H]1C[C@H](O)c2cc(C(F)(F)F)c(F)cc2O1 [Compound 640, (2R,4S)-7-fluoro-4-hydroxy-6-(trifluoromethyl)-N-(3-{4-[5-(trifluoromethyl)pyridin-2-yl]-1H-pyrazol-1-yl}bicyclo[1.1.1]pentan-1-yl)-3,4-dihydro-2H-1-benzopyran-2-carboxamide] | < 10 |
| COc1ncc(OCC(=O)NC23CC(c4ccnc(OCCCOC(F)(F)F)c4)(C2)C3)cn1 [Compound 452, 2-[(2-methoxypyrimidin-5-yl)oxy]-N-(3-{2-[3-(trifluoromethoxy)propoxy]pyridin-4-yl}bicyclo[1.1.1]pentan-1-yl)acetamide] | 250 to 500 |
| O=C(NC12CC(n3cc(O[C@H]4CC[C@H](OC(F)(F)F)C4)cn3)(C1)C2)[C@H]1C[C@@H](O)c2cc(Cl)ccc2O1 (racemic) [Compound 586, (2R,4R)-6-chloro-4-hydroxy-N-[3-(4-{[(1RS,3RS)-3-(trifluoromethoxy)cyclopentyl]oxy}-1H-pyrazol-1-yl)bicyclo[1.1.1]pentan-1-yl]-3,4-dihydro-2H-1-benzopyran-2-carboxamide] | 10 to 50 |
| O=C(NC12CC(n3cnc(C(=O)N4CC[C@H](OC(F)(F)F)C4)c3)(C1)C2)[C@H]1C[C@@H](O)c2cc(Cl)ccc2O1 [Compound 386, (2R,4R)-6-chloro-4-hydroxy-N-(3-{4-[(3S)-3-(trifluoromethoxy)pyrrolidine-1-carbonyl]-1H-imidazol-1-yl}bicyclo[1.1.1]pentan-1-yl)-3,4-dihydro-2H-1-benzopyran-2-carboxamide] | < 10 |
| O=C(NC12CC(n3cc(-c4ccc(OC(F)F)cn4)cn3)(C1)C2)[C@H]1C[C@@H](O)c2cc(Cl)ccc2O1 [Compound 575, (2R,4R)-6-chloro-N-(3-{4-[5-(difluoromethoxy)pyridin-2-yl]-1H-pyrazol-1-yl}bicyclo[1.1.1]pentan-1-yl)-4-hydroxy-3,4-dihydro-2H-1-benzopyran-2-carboxamide] | < 10 |
| O=C(COc1ccc(C(F)(F)F)cc1)NC12CC(n3cc(C(=O)N4CC[C@H](OC(F)(F)F)C4)cn3)(C1)C2 [Compound 604, N-(3-{4-[(3S)-3-(trifluoromethoxy)pyrrolidine-1-carbonyl]-1H-pyrazol-1-yl}bicyclo[1.1.1]pentan-1-yl)-2-[4-(trifluoromethyl)phenoxy]acetamide] | < 10 |
| COc1ccc2nn(C34CC(NC(=O)[C@H]5C[C@@H](O)c6cc(Cl)ccc6O5)(C3)C4)cc2c1 [Compound 501, (2R,4R)-6-chloro-4-hydroxy-N-[3-(5-methoxy-2H-indazol-2-yl)bicyclo[1.1.1]pentan-1-yl]-3,4-dihydro-2H-1-benzopyran-2-carboxamide] | 10 to 50 |
| Cc1ccc(-c2cnn(C34CC(NC(=O)[C@H]5C[C@@H](O)c6cc(Cl)ccc6O5)(C3)C4)c2)nc1 [Compound 554, (2R,4R)-6-chloro-4-hydroxy-N-{3-[4-(5-methylpyridin-2-yl)-1H-pyrazol-1-yl]bicyclo[1.1.1]pentan-1-yl}-3,4-dihydro-2H-1-benzopyran-2-carboxamide] | < 10 |
| O=C(COc1ccc(Cl)c(Cl)c1)NC12CC(n3cc(C(=O)N4CC[C@H](OC(F)(F)F)C4)cn3)(C1)C2 [Compound 606, 2-(3,4-dichlorophenoxy)-N-(3-{4-[(3S)-3-(trifluoromethoxy)pyrrolidine-1-carbonyl]-1H-pyrazol-1-yl}bicyclo[1.1.1]pentan-1-yl)acetamide] | < 10 |
